Laboratory results taken from PubChem BioAssay AID298 (DTP/NCI, 2004).
Several values for one entry are separate records, joined by “and”; a condition that tells them apart may be missing. Equal values may be shown once. Inconclusive results are not listed.

Tested on: MX-1 breast xenograft, intrarenal, nude mice, tumor weight
Test: NCI In Vivo Anticancer Drug Screen. Data for tumor model Human Mammary Carcinoma MX-1 Xenograft (intrarenal inoculation) in NU/NU BALB/C (nude) mice
Conditions: endpoint: mean tumor weight change, higher = larger tumour
Summary of the method: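 Mice w/ transplanted tumors, drug vs vehicle; endpoint survival or tumor size; value = T/C.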

[1] = dose: 75.0 mg/kg/injection, schedule: Q04DX003 (ip), vehicle: water
[2] = dose: 150.0 mg/kg/injection, schedule: Q04DX003 (ip), vehicle: water
[3] = dose: 50.0 mg/kg/injection, schedule: Q04DX003 (ip), vehicle: saline with Tween-80
[4] = dose: 100.0 mg/kg/injection, schedule: Q04DX003 (ip), vehicle: saline with Tween-80
[5] = dose: 200.0 mg/kg/injection, schedule: Q04DX003 (ip), vehicle: saline with Tween-80

c1ccc2c(NCCCCCCCCNc3c4ccccc4nc4ccccc34)c3ccccc3nc2c1
T/C (dose: 20.0 mg/kg/injection, schedule: Q01DX010 (sc), vehicle: Klucel (hydroxypropylcellulose) (HPC)): 106 % of control | T/C (dose: 40.0 mg/kg/injection, schedule: Q01DX010 (sc), vehicle: Klucel (hydroxypropylcellulose) (HPC)): 107 % of control | T/C (dose: 80.0 mg/kg/injection, schedule: Q01DX010 (sc), vehicle: Klucel (hydroxypropylcellulose) (HPC)): 100 % of control | T/C (dose: 160.0 mg/kg/injection, schedule: Q01DX010 (sc), vehicle: Klucel (hydroxypropylcellulose) (HPC)): 99 % of control

COc1cc(Cc2nccc3cc(OC)c(OC)cc23)c(C(C)=O)cc1OC
T/C (dose: 300.0 mg/kg/injection, schedule: Q04DX003 (sc), vehicle: saline): 54 % of control | T/C (dose: 600.0 mg/kg/injection, schedule: Q04DX003 (sc), vehicle: saline): 68 % of control | T/C (dose: 1200.0 mg/kg/injection, schedule: Q04DX003 (sc), vehicle: saline): 48 % of control

O=C1c2c(O)cccc2-c2nn(CCNCCO)c3ccc(NCCNCCO)c1c23
T/C (dose: 2.75 mg/kg/injection, schedule: Q04DX003 (ip), vehicle: water): 3 % of control | T/C (dose: 5.5 mg/kg/injection, schedule: Q04DX003 (ip), vehicle: water): -100 % of control | T/C (dose: 11.0 mg/kg/injection, schedule: Q04DX003 (ip), vehicle: water): -19 % of control

C#CCN(Cc1ccc2nc(N)[nH]c(=O)c2c1)c1ccc(C(=O)NC(CCC(=O)O)C(=O)O)cc1 (stereo not drawn)
T/C [1]: 111 % of control | T/C [2]: 74 % of control | T/C (dose: 300.0 mg/kg/injection, schedule: Q04DX003 (ip), vehicle: water): 72 % of control

O=NNc1ccc2cccnc2n1
T/C (dose: 37.5 mg/kg/injection, schedule: Q04DX003 (ip), vehicle: other): 6 % of control | T/C (dose: 37.5 mg/kg/injection, schedule: Q04DX003 (ip), vehicle: water): 63 % of control | T/C (dose: 75.0 mg/kg/injection, schedule: Q04DX003 (ip), vehicle: other): -45 % of control | T/C [1]: 17 % of control | T/C [2]: 9 % of control

O=CNCO
T/C (dose: 300.0 mg/kg/injection, schedule: Q01DX010 (sc), vehicle: water): 68 % of control | T/C (dose: 600.0 mg/kg/injection, schedule: Q01DX010 (sc), vehicle: water): 39 % of control | T/C (dose: 1200.0 mg/kg/injection, schedule: Q01DX010 (sc), vehicle: water): 11 % of control | T/C (dose: 2000.0 mg/kg/injection, schedule: Q01DX010 (sc), vehicle: water): 8 % of control

O=CC(NC(=O)N(CCCl)N=O)C(O)C(O)C(O)CO (stereo not drawn)
T/C (dose: 3.0 mg/kg/injection, schedule: Q01DX010 (sc), vehicle: Klucel (hydroxypropylcellulose) (HPC)): 59 % of control | T/C (dose: 6.0 mg/kg/injection, schedule: Q01DX010 (sc), vehicle: Klucel (hydroxypropylcellulose) (HPC)): 51 % of control

O=C1CSC(c2cccs2)N1c1nncs1 (stereo not drawn)
T/C (dose: 100.0 mg/kg/injection, schedule: Q04DX003 (ip), vehicle: Klucel (hydroxypropylcellulose) (HPC)): 92 % of control | T/C (dose: 200.0 mg/kg/injection, schedule: Q04DX003 (ip), vehicle: Klucel (hydroxypropylcellulose) (HPC)): 102 % of control | T/C (dose: 400.0 mg/kg/injection, schedule: Q04DX003 (ip), vehicle: Klucel (hydroxypropylcellulose) (HPC)): 57 % of control | T/C (dose: 800.0 mg/kg/injection, schedule: Q04DX003 (ip), vehicle: Klucel (hydroxypropylcellulose) (HPC)): 49 % of control

COc1cc2c(cc1OC)-c1c3c(cc4c1[C@@H](C2)N(C)CC4)OCO3
T/C (dose: 37.5 mg/kg/injection, schedule: Q04DX003 (ip), vehicle: distilled water + alcohol): 56 % of control | T/C (dose: 75.0 mg/kg/injection, schedule: Q04DX003 (ip), vehicle: distilled water + alcohol): 55 % of control | T/C (dose: 150.0 mg/kg/injection, schedule: Q04DX003 (ip), vehicle: distilled water + alcohol): 68 % of control

CN(C)N=Nc1ccc(C(N)=O)cc1
T/C [3]: 85 % of control | T/C [4]: 78 % of control | T/C [5]: 80 % of control

Cc1nc2c(N)cc(Cl)cc2[nH]1
T/C [4]: 95 % of control | T/C [5]: 45 % of control

O=C1CN(c2ccccc2)C(=O)C1C(=O)Nc1ccc(Cl)c(Cl)c1 (stereo not drawn)
T/C (dose: 120.0 mg/kg/injection, schedule: Q04DX003 (ip), vehicle: saline with Tween-80): 70 % of control | T/C (dose: 240.0 mg/kg/injection, schedule: Q04DX003 (ip), vehicle: saline with Tween-80): 32 % of control

O=S(CCCl)CCCl
T/C (dose: 25.0 mg/kg/injection, schedule: Q04DX003 (sc), vehicle: Klucel (hydroxypropylcellulose) (HPC)): 94 % of control | T/C (dose: 50.0 mg/kg/injection, schedule: Q04DX003 (sc), vehicle: Klucel (hydroxypropylcellulose) (HPC)): 92 % of control

Cc1cnc(/C=N\NC(N)=S)c2cccc(N)c12
T/C (dose: 125.0 mg/kg/injection, schedule: Q04DX003 (ip), vehicle: saline with Tween-80): 31 % of control

NC(=S)N/N=C/c1cc(=O)c2cc(Cl)ccc2o1
T/C (dose: 150.0 mg/kg/injection, schedule: Q04DX003 (ip), vehicle: other): 117 % of control | T/C (dose: 300.0 mg/kg/injection, schedule: Q04DX003 (ip), vehicle: other): 103 % of control | T/C (dose: 600.0 mg/kg/injection, schedule: Q04DX003 (ip), vehicle: other): 117 % of control | T/C (dose: 1200.0 mg/kg/injection, schedule: Q04DX003 (ip), vehicle: other): 106 % of control

CC[PH+](CC)CC[S-].CC[PH+](CC)CC[S-].[Au+].[Au+]
T/C (dose: 40.0 mg/kg/injection, schedule: Q04DX003 (sc), vehicle: Klucel (hydroxypropylcellulose) (HPC)): 87 % of control | T/C (dose: 80.0 mg/kg/injection, schedule: Q04DX003 (sc), vehicle: Klucel (hydroxypropylcellulose) (HPC)): 69 % of control | T/C (dose: 160.0 mg/kg/injection, schedule: Q04DX003 (sc), vehicle: Klucel (hydroxypropylcellulose) (HPC)): 55 % of control | T/C (dose: 320.0 mg/kg/injection, schedule: Q04DX003 (sc), vehicle: Klucel (hydroxypropylcellulose) (HPC)): 80 % of control

Cc1ccc2c(c1)C1(SC(C)C(=O)N1c1ccc(Cl)cc1)C(=O)N2 (stereo not drawn)
T/C [4]: 107 % of control | T/C [5]: 85 % of control | T/C (dose: 800.0 mg/kg/injection, schedule: Q04DX003 (ip), vehicle: saline with Tween-80): 72 % of control

O=C(Nc1ccccc1)c1c(O)[nH]c(=O)[nH]c1=O
T/C [4]: 102 % of control | T/C [5]: 71 % of control | T/C (dose: 400.0 mg/kg/injection, schedule: Q04DX003 (ip), vehicle: saline with Tween-80): 57 % of control

COc1cc(/C=C/[N+](=O)[O-])cc(Br)c1OC
T/C (dose: 6.25 mg/kg/injection, schedule: Q04DX003 (ip), vehicle: saline with Tween-80): 81 % of control | T/C (dose: 12.5 mg/kg/injection, schedule: Q04DX003 (ip), vehicle: saline with Tween-80): 104 % of control | T/C (dose: 25.0 mg/kg/injection, schedule: Q04DX003 (ip), vehicle: saline with Tween-80): 92 % of control and 105 % of control | T/C [3]: 96 % of control

CO[C@@]12[C@H](COC(N)=O)C3=C(C(=O)C(C)=C(N)C3=O)N1C[C@@H]1N[C@@H]12
T/C (dose: 1.5 mg/kg/injection, schedule: Q04DX003 (sc), vehicle: saline): 9 % of control and 14 % of control | T/C (dose: 6.0 mg/kg/injection, schedule: Q04DX003 (ip), vehicle: suspension in saline): -100 % of control | T/C (dose: 8.0 mg/kg/injection, schedule: Q04DX003 (ip), vehicle: suspension in saline): -100 % of control

CCCNC1=C(C)C(=O)C2=C(C1=O)[C@H](COC(N)=O)[C@]1(OC)[C@@H]3N[C@@H]3CN21
T/C (dose: 3.0 mg/kg/injection, schedule: Q04DX003 (sc), vehicle: saline): 13 % of control | T/C (dose: 6.0 mg/kg/injection, schedule: Q04DX003 (sc), vehicle: saline): -77 % of control | T/C (dose: 12.0 mg/kg/injection, schedule: Q04DX003 (sc), vehicle: saline): -100 % of control

[NH-]C(CCC(N)=O)C(=O)O.[NH-]C(CCC(N)=O)C(=O)O.[Zn+2] (stereo not drawn)
T/C (dose: 75.0 mg/kg/injection, schedule: Q04DX003 (ip), vehicle: saline with Tween-80): 97 % of control

CC(=O)Oc1c[nH]c(=O)[nH]c1=O
T/C (dose: 300.0 mg/kg/injection, schedule: Q04DX003 (sc), vehicle: distilled water + Tween-80): 116 % of control | T/C (dose: 600.0 mg/kg/injection, schedule: Q04DX003 (sc), vehicle: distilled water + Tween-80): 118 % of control | T/C (dose: 1200.0 mg/kg/injection, schedule: Q04DX003 (sc), vehicle: distilled water + Tween-80): 102 % of control | T/C (dose: 2400.0 mg/kg/injection, schedule: Q04DX003 (sc), vehicle: distilled water + Tween-80): 83 % of control

CCOc1ccc(C(C)c2cc3c(cc2OC)OCO3)cc1 (stereo not drawn)
T/C (dose: 150.0 mg/kg/injection, schedule: Q04DX003 (ip), vehicle: distilled water + Tween-80): 93 % of control | T/C (dose: 300.0 mg/kg/injection, schedule: Q04DX003 (ip), vehicle: distilled water + Tween-80): 56 % of control | T/C (dose: 600.0 mg/kg/injection, schedule: Q04DX003 (ip), vehicle: distilled water + Tween-80): 27 % of control
